Source: ChEMBL document CHEMBL1926659, “CK2α and CK2α' subunits differ in their sensitivity to 4,5,6,7-tetrabromo- and 4,5,6,7-tetraiodo-1H-benzimidazole derivatives” (Eur J Med Chem, 2012)

How the values were obtained:
[1] = biological target: T1, Casein kinase II subunit alpha' (Homo sapiens, UniProt P19784); test: Inhibition of human CK2 alpha' catalytic subunit expressed in Escherichia coli BL21 (DE3) assessed as [33P]gamma-ATP incorporation into P2B substrate after 15 mins by scintillation counting
T1 sequence (P19784 whole entry): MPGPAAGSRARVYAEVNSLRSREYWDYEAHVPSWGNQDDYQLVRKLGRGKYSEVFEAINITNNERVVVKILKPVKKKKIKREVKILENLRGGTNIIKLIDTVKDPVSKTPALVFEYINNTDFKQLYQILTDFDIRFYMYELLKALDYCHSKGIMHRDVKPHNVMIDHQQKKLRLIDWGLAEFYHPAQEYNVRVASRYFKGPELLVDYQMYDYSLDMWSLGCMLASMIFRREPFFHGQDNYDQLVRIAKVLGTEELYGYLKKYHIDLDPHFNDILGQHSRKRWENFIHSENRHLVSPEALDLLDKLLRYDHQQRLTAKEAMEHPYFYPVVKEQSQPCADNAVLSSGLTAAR

[2] = biological target: T1, Casein kinase II subunit alpha'; test: Inhibition of human CK2 alpha' catalytic subunit expressed in Escherichia coli […] (DE3) assessed as [33P]gamma-ATP incorporation into RRRADDSDDDDD substrate after 15 mins by scintillation counting
[3] = biological target: T2, Casein kinase II subunit alpha (Homo sapiens, UniProt P68400); test: Inhibition of human CK2 alpha catalytic subunit expressed in Escherichia coli BL21 (DE3) assessed as [32P]gamma-ATP incorporation into P2B substrate after 15 mins by scintillation counting
T2 sequence (P68400 whole entry): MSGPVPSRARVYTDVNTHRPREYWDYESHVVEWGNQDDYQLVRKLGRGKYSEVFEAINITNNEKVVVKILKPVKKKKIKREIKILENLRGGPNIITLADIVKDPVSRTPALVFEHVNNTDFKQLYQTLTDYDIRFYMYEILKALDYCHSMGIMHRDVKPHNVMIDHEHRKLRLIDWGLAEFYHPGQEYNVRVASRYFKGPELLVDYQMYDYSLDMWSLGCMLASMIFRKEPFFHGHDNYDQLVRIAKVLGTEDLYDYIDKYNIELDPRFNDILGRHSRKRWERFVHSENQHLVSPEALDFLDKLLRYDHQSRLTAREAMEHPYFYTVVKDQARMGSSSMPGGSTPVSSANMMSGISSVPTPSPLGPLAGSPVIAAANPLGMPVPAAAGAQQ

[4] = biological target: T2, Casein kinase II subunit alpha; test: Inhibition of human CK2 alpha catalytic subunit expressed in Escherichia coli BL21 (DE3) assessed as [32P]gamma-ATP incorporation into RRRADDSDDDDD substrate after 15 mins by scintillation counting

| SMILES | Ki [1] | Ki [2] | Ki [3] | Ki [4] |
| --- | --- | --- | --- | --- |
| O=C(O)CSc1nc2c(I)c(I)c(I)c(I)c2[nH]1 | 78 nM | 106 nM | 110 nM | 80 nM |
| CN(C)c1nc2c(Br)c(Br)c(Br)c(Br)c2n1CC(=O)O | 66 nM | 21 nM | 88 nM | 83 nM |
| Cn1c(SCCCC(=O)O)nc2c(Br)c(Br)c(Br)c(Br)c21 | 83 nM | 768 nM | 88 nM | 501 nM |
| O=C(O)CCSc1nc2c(Br)c(Br)c(Br)c(Br)c2[nH]1 | 35 nM | 31 nM | 116 nM | 172 nM |
| O=C(O)Cn1cnc2c(Br)c(Br)c(Br)c(Br)c21 | 609 nM | 342 nM | 798 nM | 670 nM |
| Cn1c(SCC(=O)O)nc2c(Br)c(Br)c(Br)c(Br)c21 | 200 nM | 24 nM | 143 nM | 13 nM |
| Brc1c(Br)c(Br)c2[nH]cnc2c1Br | 270 nM | 343 nM |  |  |
| O=C(O)CSc1nc2c(Br)c(Br)c(Br)c(Br)c2[nH]1 | 37 nM | 49 nM | 106 nM | 170 nM |
| O=C(O)CCCn1cnc2c(Br)c(Br)c(Br)c(Br)c21 | 188 nM | 195 nM | 472 nM | 368 nM |
| Ic1c(I)c(I)c2[nH]cnc2c1I | 71 nM | 21 nM | 266 nM | 43 nM |
| CN(C)c1nc2c(Br)c(Br)c(Br)c(Br)c2n1C | 109 nM | 35 nM | 212 nM | 154 nM |
| CN(C)c1nc2c(Br)c(Br)c(Br)c(Br)c2n1CCCC(=O)O | 139 nM | 93 nM | 860 nM | 456 nM |
| O=C(O)Cn1cnc2c(I)c(I)c(I)c(I)c21 | 62 nM | 324 nM | 378 nM | 261 nM |
| O=C(O)CCCSc1nc2c(Br)c(Br)c(Br)c(Br)c2[nH]1 | 88 nM | 44 nM | 77 nM | 210 nM |
| Cn1c(SCCC(=O)O)nc2c(Br)c(Br)c(Br)c(Br)c21 | 100 nM | 55 nM | 112 nM | 137 nM |
